In patent publication US9079866B2, “Flap modulators” (JANSSEN PHARMACEUTICA NV, priority 2013, dated 2015) one finds Ki and IC50 data, which are given here for 34 compounds.

Assay [1] has as its target human FLAP (Homo sapiens (Human), UniProt P20292). Put plainly: FLAP binding assay (HTRF format). The conditions noted are these: wild type FLAP, HTRF format. Summed up:
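HTRF ratio read-out; two independent plates, samples in duplicate on each, values averaged across plates.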
A general note: TR-FRET usually uses a lanthanide donor and a delayed reading to cut background.

Assay [2] relates to leukotriene pathway in human whole blood (LTB4 levels). The assay is described as follows: Human whole blood assay (A23187-stimulated LTB4). The conditions noted are these: Homo sapiens, human whole blood diluted 1:1, A23187-stimulated; read-out: LTB4 IC50 1:1. It is filed as cell-based. An outline of the steps: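 Compounds are pre-incubated 15 min at 37° Celsius in RPMI-diluted (1:1) heparinised whole blood before a 30 min A23187 stimulus (7 μg/mL). Plasma LTB4 is read by immunoassay kit, with IC50 calculated from a 4-parameter equation.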

Chain of human FLAP (P20292 whole entry): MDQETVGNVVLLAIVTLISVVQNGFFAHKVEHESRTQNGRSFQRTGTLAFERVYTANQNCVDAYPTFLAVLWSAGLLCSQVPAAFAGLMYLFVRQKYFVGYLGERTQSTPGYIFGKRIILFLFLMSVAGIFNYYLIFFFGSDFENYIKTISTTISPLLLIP

What is called Ki is a measure of affinity in units of concentration, obtained from inhibition or displacement. A higher Ki goes with a looser hold on the target. In general, IC50 refers to the point on the concentration scale where inhibition reaches its midpoint. Regarding `CCN(CC)C(=O)c1ccccc1-c1ccc(-c2cnc(N)cn2)c(F)c1` [Example 503, 4′-(5-Aminopyrazin-2-yl)-N,N-diethyl-3′-fluorobiphenyl-2-carboxamide], in assay [1], affinity was put at a Ki of 14 nM. Besides, in assay [2], the concentration for half-maximal inhibition (IC50) came to 92 nM.

For the compound `C[C@H](NC(=O)c1ccccc1-c1ccc(-c2cnc(N)cn2)c(F)c1)C(F)(F)F` [Example 505, 4′-(5-Aminopyrazin-2-yl)-3′-fluoro-N-[(1S)-2,2,2-trifluoro-1-methylethyl]biphenyl-2-carboxamide], the Ki in assay [1] turned out to be 18 nM. For the same compound, the IC50 in assay [2] is 71 nM.

In assay [1], `Nc1cnc(-c2ccc(-c3ccccc3C(=O)N3CCS(=O)(=O)CC3)cc2F)cn1` [Example 509, 5-{2′-[(1,1-Dioxidothiomorpholin-4-yl)carbonyl]-3-fluorobiphenyl-4-yl}pyrazin-2-amine] yielded a Ki of 147 nM. In addition, in assay [2], the IC50 was found to be 93 nM.

In assay [1], `C[C@@H](NC(=O)c1ccccc1-c1ccc(-c2cnc(N)cn2)c(F)c1)C(F)(F)F` [Example 511, 4′-(5-Aminopyrazin-2-yl)-3′-fluoro-N-[(1R)-2,2,2-trifluoro-1-methylethyl]biphenyl-2-carboxamide] registered a Ki of 213 nM. Also, the IC50 in assay [2] was found to be 323 nM.

`C[C@H](CO)NC(=O)c1ccccc1-c1ccc(-c2cnc(N)cn2)c(F)c1` [Example 512, 4′-(5-Aminopyrazin-2-yl)-3′-fluoro-N-[(1R)-2-hydroxy-1-methylethyl]biphenyl-2-carboxamide]: the affinity in assay [1] corresponds to a Ki of 443 nM. The IC50 in assay [2] turned out to be 470 nM.

The compound `Nc1cnc(-c2ccc(-c3ccccc3C(=O)N3CCC(O)CC3)cc2F)cn1` [Example 514, 1-{[4′-(5-Aminopyrazin-2-yl)-3′-fluorobiphenyl-2-yl]carbonyl}piperidin-4-ol] yielded an inhibition constant Ki in assay [1] of 132 nM. The concentration for half-maximal inhibition (IC50) in assay [2] came out at 148 nM.

Consider `Nc1cnc(-c2ccc(-c3ccc(C(F)(F)F)cc3C(=O)N3CCOCC3)cc2F)cn1` [Example 521, 5-[3-Fluoro-2′-(morpholin-4-ylcarbonyl)-4′-(trifluoromethyl)biphenyl-4-yl]pyrazin-2-amine], for which affinity in assay [1] was put at a Ki of 5 nM. Further, the IC50 in assay [2] is 13 nM.

Turning to `Nc1ncc(-c2ccc(-c3ccc(C(F)(F)F)cc3C(=O)N3CCOCC3)cc2F)cn1` [Example 522, 5-[3-Fluoro-2′-(morpholin-4-ylcarbonyl)-4′-(trifluoromethyl)biphenyl-4-yl]pyrimidin-2-amine], the inhibition constant Ki in assay [1] was found to be 348 nM. Moreover, the IC50 in assay [2] came to 393 nM.

As for `Nc1nccc(Oc2ccccc2-c2ccc(-c3cnc4[nH]ccc4c3)c(F)c2)n1` [Example 523, 4-{[3′-Fluoro-4′-(1H-pyrrolo[2,3-b]pyridin-5-yl)biphenyl-2-yl]oxy}pyrimidin-2-amine], the Ki in assay [1] is 1 nM. In addition, the IC50 in assay [2] was found to be 25 nM.

Turning to `Nc1ccnc(Oc2ccccc2-c2ccc(-c3cnc4[nH]ccc4c3)c(F)c2)n1` [Example 524, 2-{[3′-Fluoro-4′-(1H-pyrrolo[2,3-b]pyridin-5-yl)biphenyl-2-yl]oxy}pyrimidin-4-amine], the affinity in assay [1] corresponds to a Ki of 1 nM. In assay [2], the IC50 is 18 nM.

In assay [1], `Fc1cc(-c2ccccc2Oc2ncccn2)ccc1-c1cnc2[nH]ccc2c1` [Example 525, 5-[3-Fluoro-2′-(pyrimidin-2-yloxy)biphenyl-4-yl]-1H-pyrrolo[2,3-b]pyridine] had an inhibition constant Ki of 3 nM. The concentration for half-maximal inhibition (IC50) in assay [2] is 36 nM.

As to `Nc1ncc(-c2ccc(-c3ccccc3Oc3ncccn3)cc2F)cn1` [Example 527, 5-[3-Fluoro-2′-(pyrimidin-2-yloxy)biphenyl-4-yl]pyrimidin-2-amine], the inhibition constant Ki in assay [1] was found to be 74 nM. In addition, the IC50 in assay [2] came to 183 nM.

`Nc1cnc(-c2ccc(-c3ccccc3Oc3nccc(N)n3)cc2F)cn1` [Example 528, 2-{[4′-(5-Aminopyrazin-2-yl)-3′-fluorobiphenyl-2-yl]oxy}pyrimidin-4-amine] gave a Ki in assay [1] of 5 nM. For the same compound, the 50% inhibitory concentration (IC50) in assay [2] came to 34 nM.

`Nc1ccnc(Oc2ccccc2-c2ccc(-c3cnc(N)nc3)c(F)c2)n1` [Example 529, 5-{2′-[(4-Aminopyrimidin-2-yl)oxy]-3-fluorobiphenyl-4-yl}pyrimidin-2-amine] registered an inhibition constant (Ki) in assay [1] of 36 nM. Further, in assay [2], the half-maximal inhibitory concentration (IC50) came out at 90 nM.

`N#Cc1cccc(COc2ccccc2-c2ccc(-c3cnc(N)cn3)c(F)c2)n1` [Example 530, 6-({[4′-(5-Aminopyrazin-2-yl)-3′-fluorobiphenyl-2-yl]oxy}methyl)pyridine-2-carbonitrile] yielded an inhibitory constant (Ki) in assay [1] of 34 nM. For the same compound, the 50% inhibitory concentration (IC50) in assay [2] was found to be 1110 nM.

Take `N#Cc1cccnc1COc1ccccc1-c1ccc(-c2cnc(N)cn2)c(F)c1` [Example 531, 2-({[4′-(5-Aminopyrazin-2-yl)-3′-fluorobiphenyl-2-yl]oxy}methyl)pyridine-3-carbonitrile]: the inhibition constant Ki in assay [1] came out at 8 nM. For the same compound, the IC50 in assay [2] is 323 nM.

Consider `N#Cc1cccnc1Oc1ccccc1-c1ccc(-c2cnc(N)cn2)c(F)c1` [Example 532, 2-{[4′-(5-Aminopyrazin-2-yl)-3′-fluorobiphenyl-2-yl]oxy}pyridine-3-carbonitrile], for which affinity in assay [1] was put at a Ki of 6 nM. The IC50 in assay [2] was determined as 32 nM.

For `Nc1cnc(-c2ccc(-c3ccccc3Oc3ccnc(N)n3)cc2F)cn1` [Example 533, 4-{[4′-(5-Aminopyrazin-2-yl)-3′-fluorobiphenyl-2-yl]oxy}pyrimidin-2-amine], the inhibition constant (Ki) in assay [1] is 5 nM. The half-inhibitory concentration (IC50) in assay [2] was found to be 23 nM.

Consider `Nc1ncc(-c2ccc(-c3ccccc3Oc3ccnc(N)n3)cc2F)cn1` [Example 534, 4-{[4′-(2-Aminopyrimidin-5-yl)-3′-fluorobiphenyl-2-yl]oxy}pyrimidin-2-amine], for which, in assay [1], the Ki worked out at 12 nM. Besides, the IC50 in assay [2] was 69 nM.

In the case of `Nc1cnc(-c2ccc(-c3ccccc3Oc3cc(N)ncn3)cc2F)cn1` [Example 535, 6-{[4′-(5-Aminopyrazin-2-yl)-3′-fluorobiphenyl-2-yl]oxy}pyrimidin-4-amine], the affinity in assay [1] corresponds to a Ki of 1 nM. The IC50 in assay [2] came to 17 nM.

With `Nc1cc(Oc2ccccc2-c2ccc(-c3cnc(N)nc3)c(F)c2)ncn1` [Example 536, 5-{2′-[(6-Aminopyrimidin-4-yl)oxy]-3-fluorobiphenyl-4-yl}pyrimidin-2-amine], in assay [1], the Ki was 21 nM. In assay [2], the IC50 stood at 68 nM.

`N#Cc1cc(Oc2ccccc2-c2ccc(-c3cnc(N)cn3)c(F)c2)ccn1` [Example 537, 4-{[4′-(5-Aminopyrazin-2-yl)-3′-fluorobiphenyl-2-yl]oxy}pyridine-2-carbonitrile]: the Ki in assay [1] was determined as 3 nM. Moreover, in assay [2], the 50% inhibitory concentration (IC50) was found to be 42 nM.

`Nc1cnc(-c2ccc(-c3ccccc3Oc3cc(N4CCC4)ncn3)cc2F)cn1` [Example 539, 5-{2′-[(6-Azetidin-1-ylpyrimidin-4-yl)oxy]-3-fluorobiphenyl-4-yl}pyrazin-2-amine]: the affinity in assay [1] corresponds to a Ki of 2 nM. Further, in assay [2], the IC50 was 52 nM.

As for `Nc1ncc(-c2ccc(-c3ccccc3Oc3cc(N4CCC4)ncn3)cc2F)cn1` [Example 540, 5-{2′-[(6-Azetidin-1-ylpyrimidin-4-yl)oxy]-3-fluorobiphenyl-4-yl}pyrimidin-2-amine], in assay [1], the Ki was 16 nM. In addition, in assay [2], the IC50 is 85 nM.

With `Cc1nccc(Oc2ccccc2-c2ccc(-c3cnc(N)cn3)c(F)c2)n1` [Example 541, 5-{3-Fluoro-2′-[(2-methylpyrimidin-4-yl)oxy]biphenyl-4-yl}pyrazin-2-amine], in assay [1], the Ki is 12 nM. Moreover, the IC50 in assay [2] was 66 nM.

For the compound `Cc1nccc(Oc2ccccc2-c2ccc(-c3cnc(N)nc3)c(F)c2)n1` [Example 542, 5-{3-Fluoro-2′-[(2-methylpyrimidin-4-yl)oxy]penyl-4-yl}pyrimidin-2-amine], the inhibition constant (Ki) in assay [1] was 107 nM. For the same compound, the IC50 in assay [2] is 311 nM.

In the case of `Fc1cc(-c2ccccc2Oc2ncccn2)ccc1-c1ccc2[nH]cnc2c1` [Example 543, 5-[3-Fluoro-2′-(pyrimidin-2-yloxy)biphenyl-4-yl]-1H-benzimidazole], the affinity in assay [1] corresponds to a Ki of 444 nM. Besides, the half-maximal inhibitory concentration (IC50) in assay [2] was determined as 4160 nM.

`Fc1cc(-c2ccccc2Oc2ncccn2)ccc1-c1cnc2[nH]cnc2c1` [Example 544, 6-[3-Fluoro-2′-(pyrimidin-2-yloxy)biphenyl-4-yl]-3H-imidazo[4,5-b]pyridine]: in assay [1], the affinity corresponds to a Ki of 28 nM. Besides, the concentration for half-maximal inhibition (IC50) in assay [2] amounted to 1650 nM.

`Cc1ccnc(Oc2ccccc2-c2ccc(-c3cnc(N)cn3)c(F)c2)n1` [Example 545, 5-{3-Fluoro-2′-[(4-methylpyrimidin-2-yl)oxy]biphenyl-4-yl}pyrazin-2-amine] gave an inhibition constant Ki in assay [1] of 12 nM. Also, the IC50 in assay [2] was 50 nM.

For `Cc1ccnc(Oc2ccccc2-c2ccc(-c3cnc(N)nc3)c(F)c2)n1` [Example 546, 5-{3-Fluoro-2′-[(4-methylpyrimidin-2-yl)oxy]biphenyl-4-yl}pyrimidin-2-amine], affinity in assay [1] was put at a Ki of 148 nM. Also, the IC50 in assay [2] stood at 253 nM.

In assay [1], `Nc1cnc(-c2ccc(-c3ccccc3Oc3ccnc(C(F)(F)F)n3)cc2F)cn1` [Example 547, 5-(3-Fluoro-2′-{[2-(trifluoromethyl)pyrimidin-4-yl]oxy}biphenyl-4-yl)pyrazin-2-amine] gave a Ki of 35 nM. Also, in assay [2], the IC50 worked out at 104 nM.

For `Nc1ncc(-c2ccc(-c3ccccc3Oc3ccnc(C(F)(F)F)n3)cc2F)cn1` [Example 548, 5-(3-Fluoro-2′-{[2-(trifluoromethyl)pyrimidin-4-yl]oxy}biphenyl-4-yl)pyrimidin-2-amine], the Ki in assay [1] is 467 nM. Also, the IC50 in assay [2] stood at 741 nM.

Regarding `COc1cnc(Oc2ccccc2-c2ccc(-c3cnc(N)cn3)c(F)c2)nc1` [Example 549, 5-{3-Fluoro-2′-[(5-methoxypyrimidin-2-yl)oxy]biphenyl-4-yl}pyrazin-2-amine], the affinity in assay [1] corresponds to a Ki of 9 nM. In assay [2], the IC50 turned out to be 123 nM.

For `COc1cnc(Oc2ccccc2-c2ccc(-c3cnc(N)nc3)c(F)c2)nc1` [Example 550, 5-{3-Fluoro-2′-[(5-methoxypyrimidin-2-yl)oxy]biphenyl-4-yl}pyrimidin-2-amine], the Ki in assay [1] worked out at 2 nM. Moreover, the half-maximal inhibitory concentration (IC50) in assay [2] came out at 16 nM.
